Here are results for three molecules from publication PMC2654718 (Biochemistry, 2009).

The target of data set [1] is T1, MBP-VDR-LBDmt (Homo sapiens, UniProt P11473, DEL165-215).
T1 sequence (P11473 with tags, fused parts or gaps DEL165-215 limits assumed): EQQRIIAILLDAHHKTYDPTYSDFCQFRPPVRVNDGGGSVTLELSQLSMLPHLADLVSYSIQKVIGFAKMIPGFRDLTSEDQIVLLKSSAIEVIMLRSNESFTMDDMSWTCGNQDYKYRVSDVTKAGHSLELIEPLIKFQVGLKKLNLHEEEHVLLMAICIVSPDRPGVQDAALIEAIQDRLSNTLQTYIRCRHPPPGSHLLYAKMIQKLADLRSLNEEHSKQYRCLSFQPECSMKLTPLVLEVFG
Description: Fluorescence polarization peptide binding assay. The settings on record: FP. Background: In fluorescence polarisation assays a small probe gives low polarisation when free and higher when bound to something large.

The target of data set [2] is T2, VDR-LBD (Homo sapiens, UniProt P11473, DEL165-215).
T2 sequence (P11473 with tags, fused parts or gaps DEL165-215 limits assumed): T1 sequence (P11473 with tags, fused parts or gaps DEL165-215 limits assumed)
Kind of data set: Isothermal titration calorimetry of SRC2-3 peptides with VDR-LBD. The settings on record: 25 °C, 20 mM HEPES pH 7.5, 150 mM NaCl; for n: ITC stoichiometry; for ΔH: ITC. (In general: In ITC the heat of successive injections is recorded.)

Data set [3] concerns serum vitamin D binding protein. To be noted: cited from earlier work.
For data set [4] the following is noted: mice; cited from earlier work.

SMILES strings stand for the structures.

Turning to `CC(C)C[C@H](NC(=O)[C@H](C)NC(=O)[C@H](CC(N)=O)NC(=O)[C@H](CCC(=O)O)NC(=O)[C@H](CCCCN)NC(=O)[C@H](CCCCN)NC(=O)[C@H](CCCCN)NC(=O)[C@@H](N)CS)C(=O)N[C@@H](CC(C)C)C(=O)N[C@@H](CCCNC(=N)N)C(=O)N[C@@H](Cc1ccc(O)cc1)C(=O)N[C@@H](CC(C)C)C(=O)N[C@@H](CC(C)C)C(=O)N[C@@H](CC(=O)O)C(=O)N[C@@H](CCCCN)C(=O)N[C@@H](CC(=O)O)C(=O)N[C@@H](CC(=O)O)C(=O)N[C@H](C(=O)N[C@@H](CCCCN)C(=O)N[C@@H](CC(=O)O)C(=O)O)[C@@H](C)O` [SRC2-3], in data set [1] (in the presence of ligand), the “Binding affinity towards VDR (in words)” value is “High affinity binding”. The “Binding in the absence of ligand (in words)” value in data set [1] (no ligand, no plateau at higher protein concentrations) is reported as “weak or no binding”. Also, in data set [2], the n turned out to be 1.02±0.02 and the ΔH is -6.7 ± 0.3 kcal/mol.

With `CCC(CC)(c1ccc(OCC(O)CO)c(C)c1)c1ccc(OCC(O)C(C)(C)C)c(C)c1` (centres unmarked) [LG190178], the “Binding to serum vitamin D binding protein (in words)” value in data set [3] is “does not bind”. In addition, in data set [4], the “Influence on calcium serum levels (in words)” value is recorded as “no influence”.

As to `CC(C)C[C@H](NC(=O)[C@H](C)NC(=O)[C@H](CC(N)=O)NC(=O)[C@H](CCC(=O)O)NC(=O)[C@H](CCCCN)NC(=O)[C@H](CCCCN)NC(=O)[C@H](CCCCN)NC(=O)[C@@H](N)CSC1CC(=O)N(CCNS(=O)(=O)c2ccc(C3=c4cc5c6c(c4Oc4c3cc3c7c4CCCN7CCC3)CCC[N+]=6CCC5)c(S(=O)(=O)[O-])c2)C1=O)C(=O)N[C@@H](CC(C)C)C(=O)N[C@@H](CCCNC(=N)N)C(=O)N[C@@H](Cc1ccc(O)cc1)C(=O)N[C@@H](CC(C)C)C(=O)N[C@@H](CC(C)C)C(=O)N[C@@H](CC(=O)O)C(=O)N[C@@H](CCCCN)C(=O)N[C@@H](CC(=O)O)C(=O)N[C@@H](CC(=O)O)C(=O)N[C@H](C(=O)N[C@@H](CCCCN)C(=O)N[C@@H](CC(=O)O)C(=O)O)[C@@H](C)O` (some centres unmarked) [SRC2-3_Texas-Red], in data set [2], the n worked out at 0.93±0.04 and the ΔH is -2.2 ± 0.12 kcal/mol.
